Laboratory results taken from patent US20100130614A1, “ADMINISTRATION OF ADAPALENE FOR MODULATING THE EXPRESSION OF IL-1ra” (GALDERMA RESEARCH & DEVELOPMENT, priority 2007, published 2010).
“Also recorded” adds a separate entry of the source.

Legend:
IL-1ra [1] = assay: Immunohistochemistry of IL-1ra expression in explants of healthy human skin; assay type: cell-based; conditions: for intensity of expression of IL-1ra / intensity of expression of IL-1ra in the epidermis: 24 hours; for intensity of expression of IL-1ra: scale 0-3; for intensity of expression of IL-1ra in the epidermis: healthy donors (n=8), scale 0=none to 3=strong, mean (+/−)
Experimental: (§1) Fragments of healthy skin from 8 healthy donors were obtained from mammary plasties (plastic surgery) or from a foreskin (infant surgery).
(§2) The fragments of healthy skin and of acneic skin were incubated at 37° C. in a humid atmosphere and in the presence of 5% CO2 for 24 hours in KGM culture medium without hydrocortisone (PromoCell, Heidelberg, Germany). The culture medium was supplemented with 2 different concentrations of adapalene (Galderma, Sophia Antipolis): 10^−7 M and 10^−6 M. The culture medium alone served as control medium.
(§3) After incubation, the explants were removed from the culture medium and were then frozen in liquid nitrogen for the immunohistochemical study. The culture supernatants were frozen at −80° C. to evaluate the protein secretion using an ELISA assay technique.
(§4) The expression of IL-1ra was evaluated by an immunoperoxidase technique in the explants of healthy skin from 8 healthy donors and of the acneic skin from 8 patients.
For this, cryostat sections 5 μm thick were cut from the skin explants, and were then fixed in acetone at 4° C. for 10 minutes. After saturation of the nonspecific sites with bovine albumin (BSA) for 30 minutes at ambient temperature, the slides were incubated for 30 minutes at ambient temperature and in a humid atmosphere in the presence of the corresponding primary antibody [anti-IL-1ra monoclonal antibody at 10 μg/ml (R&D Systems)] or of an irrelevant isotype antibody for the negative control (normal goat IgG at (R&D Systems), IgG2a monoclonal antibody (DAKO, Trappes, France), IgG1 monoclonal antibody (DAKO)).
After washing for 15 minutes in TBS/0.1% BSA/0.05% Tween 20, the slides were incubated with a biotinylated secondary antibody (DAKO) for 30 minutes at ambient temperature and in a humid atmosphere. After a further washing step, the slides were incubated for 30 minutes in the presence of streptavidin/peroxidise (DAKO) for 30 minutes at ambient temperature and in a humid atmosphere. After a final wash, the slides were incubated for 5 minutes in the presence of AEC (DAKO), a substrate for peroxidise, and then counterstained with Mayer's hemalun. The slides were read under a microscope.
(§5) The slides were read under a Leitz microscope by 2 investigators.
A semi-quantitative scale was used to define the intensity of the labeling: 0=none, 1=weak, 2=medium, 3=strong.
(§6) A mean was established on 8 healthy donors or 8 acneic patients in each of the “control”, “10^−7 M adapalene” and “10^−6 M adapalene” groups.
(§7) The paired Wilcoxon test was employed for the statistical analysis, and p<0.05 (by comparison with the control medium) was considered to be significant.

IL-1ra [2] = assay: Immunohistochemistry of IL-1ra expression in explants of acneic skin; assay type: cell-based, human; conditions: for intensity of expression of IL-1ra in the epidermis: acneic patients (n=8), 24 hours, scale 0-3
Experimental: (§8) A skin biopsy (1×1.5 cm) was obtained from inflammatory papulae of lesions on the back of 8 acneic patients (having received no local treatment for 2 weeks or no general treatment for 1 month, or 3 months with isotretinoin). The fragments sampled were immediately placed in culture.
as §2, §3, §4
For this, cryostat sections 5 μm thick were cut from the skin explants, and were then fixed in acetone at 4° C. for 10 minutes. […]
After washing for 15 minutes in TBS/0.1% BSA/0.05% Tween 20, the slides were incubated with a biotinylated secondary antibody (DAKO) for 30 minutes at ambient temperature and in a humid atmosphere. […] The slides were read under a microscope.
as §5
A semi-quantitative scale was used to define the intensity of the labeling: 0=none, 1=weak, 2=medium, 3=strong. […]

IL-1ra [3] = assay: ELISA assay of IL-1ra secreted in culture supernatants of explants of healthy skin; assay type: cell-based, human; conditions: for amount of IL-1ra secreted in the culture supernatants: healthy skin explants (n=8), 24 hours
Experimental: as §1, §2, §3
(§9) The IL-1ra protein secretion […] in the culture supernatants of the explants of acneic skin and of healthy skin, incubated in the presence or absence of adapalene, was evaluated by means of an ELISA assay using the IL-1ra Cytoscreen detection kit (Biosource Europe S.A., Nivelles, Belgium) and according to the supplier's instructions.
as §6, §7

IL-1ra [4] = assay: ELISA assay of IL-1ra secreted in culture supernatants of explants of acneic skin; assay type: cell-based, human; conditions: for secreted amount of IL-1ra: acneic skin explants (n=8), 24 hours; for increase of secreted IL-1ra compared with the control medium: acneic skin explants
Experimental: as §8, §2, §3, §9, §6, §7

RARγ = biological target: T1, RARγ (Homo sapiens, UniProt P13631); conditions: cited from earlier work
T1 sequence (P13631 1-454): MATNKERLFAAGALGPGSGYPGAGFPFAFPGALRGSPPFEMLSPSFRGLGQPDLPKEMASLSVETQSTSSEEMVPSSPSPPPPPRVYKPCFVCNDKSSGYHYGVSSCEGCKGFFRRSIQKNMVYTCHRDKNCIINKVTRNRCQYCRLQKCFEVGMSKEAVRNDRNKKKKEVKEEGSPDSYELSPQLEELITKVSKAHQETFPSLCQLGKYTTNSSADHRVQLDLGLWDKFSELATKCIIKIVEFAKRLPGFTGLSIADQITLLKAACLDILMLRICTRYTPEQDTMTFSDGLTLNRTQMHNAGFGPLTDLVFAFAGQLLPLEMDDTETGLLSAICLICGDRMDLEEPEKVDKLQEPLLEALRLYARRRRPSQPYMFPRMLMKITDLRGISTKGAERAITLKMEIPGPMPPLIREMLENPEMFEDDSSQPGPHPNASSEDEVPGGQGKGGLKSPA

RARβ = biological target: T2, RARβ (Homo sapiens, UniProt P10826); conditions: cited from earlier work
T2 sequence (P10826 1-455): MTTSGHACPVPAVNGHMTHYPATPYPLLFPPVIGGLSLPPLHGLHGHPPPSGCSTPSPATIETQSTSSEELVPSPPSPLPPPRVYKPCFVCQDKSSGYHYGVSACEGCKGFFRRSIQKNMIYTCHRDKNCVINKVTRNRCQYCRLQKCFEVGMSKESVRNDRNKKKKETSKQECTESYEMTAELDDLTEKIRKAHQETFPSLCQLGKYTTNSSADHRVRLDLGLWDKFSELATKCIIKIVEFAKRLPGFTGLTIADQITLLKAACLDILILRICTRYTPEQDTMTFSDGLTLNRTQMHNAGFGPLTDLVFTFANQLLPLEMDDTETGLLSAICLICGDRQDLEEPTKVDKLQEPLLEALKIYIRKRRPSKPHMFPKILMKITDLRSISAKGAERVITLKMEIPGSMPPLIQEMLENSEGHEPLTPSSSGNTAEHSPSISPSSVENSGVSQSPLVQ

[5] = tested on: cellular retinoic acid binding proteins; conditions: cited from earlier work
lipoxygenase pathway = conditions: cited from earlier work
[6] = tested on: polymorphonuclear neutrophils; conditions: cited from earlier work
free radicals = conditions: cited from earlier work
[7] = tested on: superficial inflammatory lesions; conditions: clinically; cited from earlier work

COc1ccc(-c2ccc3cc(C(=O)O)ccc3c2)cc1C12CC3CC(CC(C3)C1)C2 [adapalene, 6-[3-(1-adamantyl)-4-methoxyphenyl]-2-naphthoic acid]
intensity of expression of IL-1ra (IL-1ra [1]; 1st subgroup of healthy donors (n=4, weak control expression), 10^−6 M adapalene): 1.2 (+/−0.4) | intensity of expression of IL-1ra (IL-1ra [1]; 1st subgroup of healthy donors (n=4, weak control expression), 10^−7 M adapalene): 1.1 (+/−0.4) | modulatory effect on the expression of IL-1ra (in words) (IL-1ra [1]; 1st subgroup of healthy donors, expression in the control medium weak): an inducing effect | intensity of expression of IL-1ra (IL-1ra [1]; 2nd subgroup of healthy donors (n=4, greater control expression), 10^−6 M adapalene): 0.5 (+/−0.0) | intensity of expression of IL-1ra (IL-1ra [1]; 2nd subgroup of healthy donors (n=4, greater control expression), 10^−7 M adapalene): 0.5 (+/−0.0) | modulatory effect on the expression of IL-1ra (in words) (IL-1ra [1]; 2nd subgroup of healthy donors, expression in the control medium greater): an inhibitory effect | intensity of expression of IL-1ra in the epidermis (IL-1ra [1]; 10^−6 M adapalene): 0.8 (+/−0.4) | intensity of expression of IL-1ra in the epidermis (IL-1ra [1]; 10^−7 M adapalene): 0.9 (+/−0.5) | modulatory effect on the expression of IL-1ra in the epidermis (in words) (IL-1ra [1]; mean of 8 healthy donors, 10^−7 M and 10^−6 M): No significant modulation; also recorded: does not demonstrate a modulatory effect | intensity of expression of IL-1ra in the epidermis (IL-1ra [2]; 10^−6 M adapalene): 0.9 (+/−0.7) | intensity of expression of IL-1ra in the epidermis (IL-1ra [2]; 10^−7 M adapalene): 0.8 (+/−0.8) | effect on the expression of IL-1ra in the epidermis (in words) (IL-1ra [2]; acneic patients, 10^−7 M and 10^−6 M): increases the expression | amount of IL-1ra secreted in the culture supernatants (IL-1ra [3]; 10^−6 M adapalene): 564 pg | amount of IL-1ra secreted in the culture supernatants (IL-1ra [3]; 10^−7 M adapalene): 600 pg | decrease of secreted IL-1ra compared with the control medium (IL-1ra [3]; healthy skin explants, 10^−6 M adapalene): 3.5% | increase of secreted IL-1ra compared with the control medium (IL-1ra [3]; healthy skin explants, 10^−7 M adapalene): 2.6% | secreted amount of IL-1ra (IL-1ra [4]; 10^−6 M adapalene): 1161 pg | secreted amount of IL-1ra (IL-1ra [4]; 10^−7 M adapalene): 1196 pg | increase of secreted IL-1ra compared with the control medium (IL-1ra [4]; 10^−6 M adapalene): 1.4% | increase of secreted IL-1ra compared with the control medium (IL-1ra [4]; 10^−7 M adapalene): 4.4% | binding to RARγ (in words) (RARγ): binds selectively | binding to RARβ (in words) (RARβ): binds selectively | binding to cellular retinoic acid binding proteins (in words) [5]: does not, on the other hand, bind | oxidative metabolism of arachidonic acid via the lipoxygenase pathway (in words) (lipoxygenase pathway): inhibits | production of leukotrienes via the lipoxygenase pathway (in words) (lipoxygenase pathway): inhibits | chemotaxis of polymorphonuclear neutrophils (in words) [6]: inhibits | production of free radicals (in words) (free radicals): inhibits | clinical activity on superficial inflammatory lesions (in words) [7]: exhibits an activity
